In US20120255051A1, “HERBICIDE TOLERANT PLANTS” (priority 2009, published 2012):

System: Brassica plants comprising mutant AHAS alleles
Assay: Field trial, pre-planting treatment (0, 10, 20, 30 g a.i./ha), two locations in Canada: ERG, EST1, EST2, PPTOX, VIG1, VIG2, VIG3 scores
Type: in vivo, Brassica napus
Conditions: for establishment (EST2) score, Av / phytotoxicity (PPTOX) score, Av / vigor1 (VIG1) score, Av / vigor2 (VIG2) score, Av: AHAS1 HETO108/AHAS3 HETO104
Source text: Tests were set up and conducted to asses the growth and performance of plants comprising AHAS full knock-out alleles, and to further analyze the correlation between the presence of full knockout and missense AHAS genes in Brassica plants and plant growth and herbicide tolerance of the Brassica plants in the field. To this end, the Brassica plants identified in Example 1 and 2 were backcrossed two times with an elite parent line, and subsequently selfed twice to obtain homozygous plants (BC2S2). Plants were grown as row plots in a split plot design with three replicates (main plots=herbicide treatments, subplots=genotypes) at two locations in Canada. Treatment pre-planting was carried out on the soil about two days before sowing with a dose of 0 (treatment A), 10 (treatment B), 20 (treatment C) or 30 (treatment D) g a.i./ha of thiencarbazone methyl. Herbicide tolerance was measured by scoring for different parameters. The parameter emergence (ERG) was scored at the cotyledon stage on a scale 1-9, where 1 means late emergence and 9 means early emergence. Establishment was scored 14 days after sowing (EST1) and 21 days after sowing (EST2). Scores were from 1 to 9, where 1 is the worst establishment (least plants that emerged), and 9 is the best establishment (most plants emerged). Phytotoxicity (PPTOX) was determined after establishment. Plants were evaluated on a scale of 1 to 9, where 1=completely yellowing, 5=50% of plant is yellow and 9=no yellowing. The vigor scores (see above) were determined at 1-2 leaf stage (VIG1), 7 days after VIG1 (VIG2) and 14 days after VIG1 (VIG3). The average values (Av) and standard deviations (SD) of the scores for the different parameters are represented in Table 7a-g.
Further, the contribution of the knock-out allele to herbicide tolerance conferred by the missense allele was calculated. First, the scores were corrected for a possible effect of the growth per se, independent of herbicide treatment. To this end, the scores for treatments B, C and D were divided by the scores for treatment A for the same genotype and for the same parameter (corrected herbicide tolerance scores). Next, the effect of the knock-out allele to these corrected herbicide tolerance scores obtained by the missense allele was calculated. Therefore, the corrected herbicide tolerance scores for the missense—knock-out allele combination was divided by the corrected herbicide tolerance scores for the missense allele—wild-type combination. In case the knock-out allele has no effect on herbicide tolerance conferred by the missense allele, this ratio should be 1. In case the knock-out allele positively contributes to the herbicide tolerance conferred by the missense allele, this ratio should be higher than 1. The results for the contribution of the knock-out allele to herbicide tolerance conferred by the missense allele as calculated above are shown in table 8.

[1] = AHAS1 HETO108, AHAS3 HETO104, treatment B 10 g a.i./ha pre-planting, Location A
[2] = AHAS1 HETO108, AHAS3 HETO104, treatment B 10 g a.i./ha pre-planting, Location B
[3] = AHAS1 HETO108, AHAS3 HETO104, treatment C 20 g a.i./ha pre-planting, Location A
[4] = AHAS1 HETO108, AHAS3 HETO104, treatment C 20 g a.i./ha pre-planting, Location B
[5] = AHAS1 HETO108, AHAS3 HETO104, treatment D 30 g a.i./ha pre-planting, Location A
[6] = AHAS1 HETO108, AHAS3 HETO104, treatment D 30 g a.i./ha pre-planting, Location B
[7] = AHAS1 HETO108, AHAS3 HETO111, treatment B 10 g a.i./ha pre-planting, Location A
[8] = AHAS1 HETO108, AHAS3 HETO111, treatment B 10 g a.i./ha pre-planting, Location B
[9] = AHAS1 HETO108, AHAS3 HETO111, treatment C 20 g a.i./ha pre-planting, Location A
[10] = AHAS1 HETO108, AHAS3 HETO111, treatment C 20 g a.i./ha pre-planting, Location B
[11] = AHAS1 HETO108, AHAS3 HETO111, treatment D 30 g a.i./ha pre-planting, Location A
[12] = AHAS1 HETO108, AHAS3 HETO111, treatment D 30 g a.i./ha pre-planting, Location B
[13] = AHAS1 HETO108, AHAS3 WT (HETO108+HETO104 series), treatment B 10 g a.i./ha pre-planting, Location A
[14] = AHAS1 HETO108, AHAS3 WT (HETO108+HETO104 series), treatment B 10 g a.i./ha pre-planting, Location B
[15] = AHAS1 HETO108, AHAS3 WT (HETO108+HETO104 series), treatment C 20 g a.i./ha pre-planting, Location A
[16] = AHAS1 HETO108, AHAS3 WT (HETO108+HETO104 series), treatment C 20 g a.i./ha pre-planting, Location B
[17] = AHAS1 HETO108, AHAS3 WT (HETO108+HETO104 series), treatment D 30 g a.i./ha pre-planting, Location A
[18] = AHAS1 HETO108, AHAS3 WT (HETO108+HETO104 series), treatment D 30 g a.i./ha pre-planting, Location B
[19] = AHAS1 HETO108, AHAS3 WT (HETO108+HETO111 series), treatment B 10 g a.i./ha pre-planting, Location A
[20] = AHAS1 HETO108, AHAS3 WT (HETO108+HETO111 series), treatment B 10 g a.i./ha pre-planting, Location B
[21] = AHAS1 HETO108, AHAS3 WT (HETO108+HETO111 series), treatment C 20 g a.i./ha pre-planting, Location A
[22] = AHAS1 HETO108, AHAS3 WT (HETO108+HETO111 series), treatment C 20 g a.i./ha pre-planting, Location B
[23] = AHAS1 HETO108, AHAS3 WT (HETO108+HETO111 series), treatment D 30 g a.i./ha pre-planting, Location A
[24] = AHAS1 HETO108, AHAS3 WT (HETO108+HETO111 series), treatment D 30 g a.i./ha pre-planting, Location B
[25] = 10 g a.i./ha pre-planting (B), Location A
[26] = 10 g a.i./ha pre-planting (B), Location B
[27] = 20 g a.i./ha pre-planting (C), Location A
[28] = 20 g a.i./ha pre-planting (C), Location B

COC(=O)c1csc(C)c1S(=O)(=O)NC(=O)n1nc(OC)n(C)c1=O [thiencarbazone-methyl, methyl 4-[(4,5-dihydro-3-methoxy-4-methyl-5-oxo-1H-1,2,4-triazol-1-yl)carbonylsulfamoyl]-5-methylthiophene-3-carboxylate]
emergence (ERG) score Av [1]: 6.00
establishment (EST1) score Av, 14 days after sowing [1]: 6.33
emergence (ERG) score Av [2]: 4.00
establishment (EST1) score Av, 14 days after sowing [2]: 5.00
emergence (ERG) score Av [3]: 4.00
establishment (EST1) score Av, 14 days after sowing [3]: 4.00
emergence (ERG) score Av [4]: 5.00
establishment (EST1) score Av, 14 days after sowing [4]: 5.00
emergence (ERG) score Av [5]: 5.00
establishment (EST1) score Av, 14 days after sowing [5]: 5.00
emergence (ERG) score Av [6]: 4.67
establishment (EST1) score Av, 14 days after sowing [6]: 5.33
emergence (ERG) score Av [7]: 5.33
establishment (EST1) score Av, 14 days after sowing [7]: 6.00
emergence (ERG) score Av [8]: 4.33
establishment (EST1) score Av, 14 days after sowing [8]: 6.00
emergence (ERG) score Av [9]: 4.67
establishment (EST1) score Av, 14 days after sowing [9]: 5.33
emergence (ERG) score Av [10]: 5.00
establishment (EST1) score Av, 14 days after sowing [10]: 5.67
emergence (ERG) score Av [11]: 5.00
establishment (EST1) score Av, 14 days after sowing [11]: 5.33
emergence (ERG) score Av [12]: 4.33
establishment (EST1) score Av, 14 days after sowing [12]: 3.67
emergence (ERG) score Av [13]: 6.67
establishment (EST1) score Av, 14 days after sowing [13]: 6.67
emergence (ERG) score Av [14]: 4.33
establishment (EST1) score Av, 14 days after sowing [14]: 4.67
emergence (ERG) score Av [15]: 5.00
establishment (EST1) score Av, 14 days after sowing [15]: 5.00
emergence (ERG) score Av [16]: 4.33
establishment (EST1) score Av, 14 days after sowing [16]: 4.67
emergence (ERG) score Av [17]: 4.67
establishment (EST1) score Av, 14 days after sowing [17]: 4.67
emergence (ERG) score Av [18]: 5.00
establishment (EST1) score Av, 14 days after sowing [18]: 5.33
emergence (ERG) score Av [19]: 6.33
establishment (EST1) score Av, 14 days after sowing [19]: 6.33
emergence (ERG) score Av [20]: 4.33
establishment (EST1) score Av, 14 days after sowing [20]: 5.33
emergence (ERG) score Av [21]: 5.33
establishment (EST1) score Av, 14 days after sowing [21]: 6.00
emergence (ERG) score Av [22]: 5.00
establishment (EST1) score Av, 14 days after sowing [22]: 5.67
emergence (ERG) score Av [23]: 5.00
establishment (EST1) score Av, 14 days after sowing [23]: 5.33
emergence (ERG) score Av [24]: 3.33
establishment (EST1) score Av, 14 days after sowing [24]: 3.67
establishment (EST2) score, Av [25]: 6.33
phytotoxicity (PPTOX) score, Av [25]: 6.00
vigor1 (VIG1) score, Av [25]: 6.33
vigor2 (VIG2) score, Av [25]: 7.33
establishment (EST2) score, Av [26]: 5.00
vigor2 (VIG2) score, Av [26]: 5.00
establishment (EST2) score, Av [27]: 4.33
vigor1 (VIG1) score, Av [27]: 5.00
vigor2 (VIG2) score, Av [27]: 6.00
establishment (EST2) score, Av [28]: 5.00
phytotoxicity (PPTOX) score, Av [28]: 6.00
vigor1 (VIG1) score, Av [28]: 5.00
